Results taken from patent US12006328B2, “Thieno[2,3-d]pyrimidin-4-one derivatives as NMDAR modulators and uses related thereto” (Emory University, priority 2014, dated 2024).

Experiments:
Type in all cases: cell-based
[1] = molecular target: GluN2C-containing NMDA receptors (Homo sapiens, UniProt Q14957); experiment: Two-electrode voltage-clamp recordings from Xenopus laevis oocytes, GluN2C; conditions: for EC50 / IC50: glutamate 100 μM, glycine 30 μM, Hill fit; for EC50: read-out: EC50 Glu N2C; for maximal potentiation Glu N2C / I10 μM/ICONTROL (mean ± SEM, %) Glu N2C: percent of response without compound; for I10 μM/ICONTROL (mean ± SEM, %) Glu N2C: 10 μM test compound with glutamate 100 μM and glycine 30 μM, Tables 1-5; for IC50: read-out: IC50 Glu N2C
Method: (§1) Xenopus laevis oocytes were injected with cRNA encoding the NMDA receptor subunits. Two to seven days after injection, two-electrode voltage-clamp recordings were performed. Extracellular solutions were made from a solutions containing (in mM) 90 NaCl, 3 KCl, 10 HEPES, 0.5 BaCl2, 0.01 EDTA (pH 7.4 with NaOH). Voltage and current electrodes were filled with 0.3 M and 3.0 M KCl, respectively.
(§2) Potency was determined by adding increasing concentrations of test compound to saturating concentrations of glutamate (100 μM) and glycine (30 μM), and the response amplitude measured. The response in the presence of each concentration of test compound plus agonists was expressed as a percent of the response in the absence of test compound.

[2] = molecular target: GluN2B-containing NMDA receptors (Homo sapiens, UniProt Q13224); experiment: Two-electrode voltage-clamp recordings from Xenopus laevis oocytes, GluN2B; conditions: for EC50 / IC50: glutamate 100 μM, glycine 30 μM, Hill fit; for EC50: read-out: EC50 Glu N2B; for maximal potentiation Glu N2B / I10 μM/ICONTROL (mean ± SEM, %) Glu N2B: percent of response without compound; for I10 μM/ICONTROL (mean ± SEM, %) Glu N2B: 10 μM test compound with glutamate 100 μM and glycine 30 μM, Tables 1-5; for IC50: read-out: IC50 Glu N2B
Method: as §1, §2

[3] = molecular target: GluN2D-containing NMDA receptors (Homo sapiens, UniProt O15399); experiment: Two-electrode voltage-clamp recordings from Xenopus laevis oocytes, GluN2D; conditions: for EC50 / IC50: glutamate 100 μM, glycine 30 μM, Hill fit; for EC50: read-out: EC50 Glu N2D; for maximal potentiation Glu N2D / I10 μM/ICONTROL (mean ± SEM, %) Glu N2D: percent of response without compound; for I10 μM/ICONTROL (mean ± SEM, %) Glu N2D: 10 μM test compound with glutamate 100 μM and glycine 30 μM, Tables 1-5; for IC50: read-out: IC50 Glu N2D
Method: as §1, §2

[4] = Table 1, in brackets after EC50
[5] = Table 2, in brackets below IC50

Sequence of GluN2D-containing NMDA receptors (O15399 28-1336, other chains not shown): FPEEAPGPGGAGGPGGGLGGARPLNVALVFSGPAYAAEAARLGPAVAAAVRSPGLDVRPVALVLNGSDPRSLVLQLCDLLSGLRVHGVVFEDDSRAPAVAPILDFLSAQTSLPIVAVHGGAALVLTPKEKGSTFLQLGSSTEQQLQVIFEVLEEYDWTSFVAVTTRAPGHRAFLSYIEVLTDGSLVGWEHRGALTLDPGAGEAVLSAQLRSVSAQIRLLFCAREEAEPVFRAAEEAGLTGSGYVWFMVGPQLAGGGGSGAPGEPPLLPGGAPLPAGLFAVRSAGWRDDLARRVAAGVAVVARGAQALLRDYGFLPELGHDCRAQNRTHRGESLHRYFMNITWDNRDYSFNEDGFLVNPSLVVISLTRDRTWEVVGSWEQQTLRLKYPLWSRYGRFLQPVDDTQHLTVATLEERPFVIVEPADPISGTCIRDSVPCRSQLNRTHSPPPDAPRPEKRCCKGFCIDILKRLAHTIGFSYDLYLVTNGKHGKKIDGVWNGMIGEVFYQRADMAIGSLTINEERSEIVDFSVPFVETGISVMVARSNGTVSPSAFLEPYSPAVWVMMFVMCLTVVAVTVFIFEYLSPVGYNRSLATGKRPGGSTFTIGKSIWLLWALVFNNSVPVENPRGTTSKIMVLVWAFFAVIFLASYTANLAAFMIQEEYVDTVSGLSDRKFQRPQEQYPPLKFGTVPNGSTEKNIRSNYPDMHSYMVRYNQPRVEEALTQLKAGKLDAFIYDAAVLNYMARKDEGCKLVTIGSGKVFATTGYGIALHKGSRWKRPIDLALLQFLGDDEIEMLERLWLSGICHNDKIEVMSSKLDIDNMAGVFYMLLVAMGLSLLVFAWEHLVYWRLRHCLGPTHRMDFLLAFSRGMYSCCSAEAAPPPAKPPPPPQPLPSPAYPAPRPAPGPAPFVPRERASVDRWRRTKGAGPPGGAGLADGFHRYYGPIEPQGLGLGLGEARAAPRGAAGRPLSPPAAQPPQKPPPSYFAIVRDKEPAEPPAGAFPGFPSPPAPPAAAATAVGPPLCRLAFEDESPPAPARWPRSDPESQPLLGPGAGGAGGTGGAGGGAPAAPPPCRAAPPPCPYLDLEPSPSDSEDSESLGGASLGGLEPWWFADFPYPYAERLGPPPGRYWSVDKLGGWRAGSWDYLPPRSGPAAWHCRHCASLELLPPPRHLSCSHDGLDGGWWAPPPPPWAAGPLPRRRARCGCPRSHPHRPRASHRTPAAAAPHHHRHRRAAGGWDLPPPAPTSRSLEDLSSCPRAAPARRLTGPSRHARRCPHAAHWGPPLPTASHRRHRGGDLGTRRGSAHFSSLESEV
Sequence of GluN2B-containing NMDA receptors (Q13224 27-1484, other chains not shown): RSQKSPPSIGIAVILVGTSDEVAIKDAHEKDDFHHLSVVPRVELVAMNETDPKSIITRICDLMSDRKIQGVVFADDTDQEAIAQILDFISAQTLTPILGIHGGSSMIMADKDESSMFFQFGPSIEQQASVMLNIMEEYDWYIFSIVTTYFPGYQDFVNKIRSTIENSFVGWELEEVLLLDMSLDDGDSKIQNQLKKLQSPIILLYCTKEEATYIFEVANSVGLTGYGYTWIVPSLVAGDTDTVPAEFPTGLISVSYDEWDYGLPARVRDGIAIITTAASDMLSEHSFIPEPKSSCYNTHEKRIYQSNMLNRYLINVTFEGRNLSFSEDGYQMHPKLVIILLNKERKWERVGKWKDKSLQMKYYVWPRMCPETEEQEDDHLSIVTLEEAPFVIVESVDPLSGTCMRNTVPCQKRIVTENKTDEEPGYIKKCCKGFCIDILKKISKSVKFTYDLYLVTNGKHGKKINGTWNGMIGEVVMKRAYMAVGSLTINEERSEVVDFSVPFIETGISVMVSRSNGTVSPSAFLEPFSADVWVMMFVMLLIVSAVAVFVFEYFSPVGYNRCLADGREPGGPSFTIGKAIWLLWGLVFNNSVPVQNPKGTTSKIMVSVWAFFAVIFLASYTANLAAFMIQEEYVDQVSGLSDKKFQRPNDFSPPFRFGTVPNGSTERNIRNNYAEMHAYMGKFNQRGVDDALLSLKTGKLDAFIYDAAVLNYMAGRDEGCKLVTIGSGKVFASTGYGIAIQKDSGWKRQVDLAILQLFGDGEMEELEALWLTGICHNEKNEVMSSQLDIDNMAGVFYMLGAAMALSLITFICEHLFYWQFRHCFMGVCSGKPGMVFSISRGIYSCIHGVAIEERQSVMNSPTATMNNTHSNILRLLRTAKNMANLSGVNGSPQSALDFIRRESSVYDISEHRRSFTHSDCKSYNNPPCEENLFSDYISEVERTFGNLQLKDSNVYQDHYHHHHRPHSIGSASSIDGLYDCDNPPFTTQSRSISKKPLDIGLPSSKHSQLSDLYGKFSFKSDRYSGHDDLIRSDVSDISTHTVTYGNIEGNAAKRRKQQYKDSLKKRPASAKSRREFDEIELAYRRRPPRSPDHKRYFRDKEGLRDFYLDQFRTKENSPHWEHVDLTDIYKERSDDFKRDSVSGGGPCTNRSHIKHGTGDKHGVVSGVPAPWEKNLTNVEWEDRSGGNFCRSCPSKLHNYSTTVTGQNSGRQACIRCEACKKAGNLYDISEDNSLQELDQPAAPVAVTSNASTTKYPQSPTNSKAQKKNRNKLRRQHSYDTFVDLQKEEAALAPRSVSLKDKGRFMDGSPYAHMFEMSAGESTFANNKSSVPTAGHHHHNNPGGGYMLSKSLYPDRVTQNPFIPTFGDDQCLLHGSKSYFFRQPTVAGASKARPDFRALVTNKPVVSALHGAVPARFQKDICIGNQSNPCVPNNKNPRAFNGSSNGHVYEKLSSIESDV
Sequence of GluN2C-containing NMDA receptors (Q14957 20-1233, other chains not shown): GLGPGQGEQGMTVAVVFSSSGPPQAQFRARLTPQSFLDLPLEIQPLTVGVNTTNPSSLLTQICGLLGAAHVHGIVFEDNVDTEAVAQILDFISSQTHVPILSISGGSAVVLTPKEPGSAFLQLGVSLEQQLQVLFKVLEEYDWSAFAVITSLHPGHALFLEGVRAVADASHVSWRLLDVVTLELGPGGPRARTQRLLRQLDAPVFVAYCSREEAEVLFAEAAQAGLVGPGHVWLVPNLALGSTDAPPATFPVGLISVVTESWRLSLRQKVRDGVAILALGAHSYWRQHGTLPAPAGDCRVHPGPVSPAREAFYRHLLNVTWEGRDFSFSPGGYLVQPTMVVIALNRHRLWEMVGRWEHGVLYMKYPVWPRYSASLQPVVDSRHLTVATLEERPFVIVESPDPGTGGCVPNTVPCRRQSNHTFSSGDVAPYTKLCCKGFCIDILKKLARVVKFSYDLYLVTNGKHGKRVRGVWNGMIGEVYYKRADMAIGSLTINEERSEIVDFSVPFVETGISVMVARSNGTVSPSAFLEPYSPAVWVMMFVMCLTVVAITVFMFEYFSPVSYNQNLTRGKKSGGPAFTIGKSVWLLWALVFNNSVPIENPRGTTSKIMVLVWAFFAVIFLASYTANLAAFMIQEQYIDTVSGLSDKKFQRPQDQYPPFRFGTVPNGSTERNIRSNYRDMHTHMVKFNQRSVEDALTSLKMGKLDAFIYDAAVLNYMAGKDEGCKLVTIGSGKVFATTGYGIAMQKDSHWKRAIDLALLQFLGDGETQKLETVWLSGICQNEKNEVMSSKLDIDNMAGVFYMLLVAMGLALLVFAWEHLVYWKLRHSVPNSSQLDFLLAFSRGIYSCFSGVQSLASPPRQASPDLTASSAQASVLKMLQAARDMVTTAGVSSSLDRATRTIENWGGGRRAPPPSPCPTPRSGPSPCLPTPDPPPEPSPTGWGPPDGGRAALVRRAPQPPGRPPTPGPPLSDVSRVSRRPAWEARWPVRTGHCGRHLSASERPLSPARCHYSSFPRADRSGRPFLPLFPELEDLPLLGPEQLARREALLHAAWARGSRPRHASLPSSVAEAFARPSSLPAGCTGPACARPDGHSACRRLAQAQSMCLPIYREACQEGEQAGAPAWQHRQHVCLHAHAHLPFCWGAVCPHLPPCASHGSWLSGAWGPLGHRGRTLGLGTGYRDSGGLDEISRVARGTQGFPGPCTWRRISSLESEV

Compound | EC50 ([1]; Table 1) [µM] | maximal potentiation Glu N2C [1, 4] [%] | EC50 ([2]; Table 1) [µM] | maximal potentiation Glu N2B [2, 4] [%] | EC50 ([3]; Table 1) [µM] | maximal potentiation Glu N2D [3, 4] [%] | I10 μM/ICONTROL (mean ± SEM, %) Glu N2C [1] [%] | I10 μM/ICONTROL (mean ± SEM, %) Glu N2B [2] [%] | I10 μM/ICONTROL (mean ± SEM, %) Glu N2D [3] [%] | other results
CCOC(=O)CCn1cnc2sc(C)c(-c3cccc(Cl)c3)c2c1=O [2 / 3-Cl—Ph / Me / OEt] |  |  |  |  |  |  | 91 ± 2.5 | 107 ± 2.3 | 97 ± 1.6 | 
CCOC(=O)CNC(=O)Cn1cnc2sc(C)c(-c3ccc(Br)cc3)c2c1=O [1 / 4-Br—Ph / Me / —NHCH2COOEt] |  |  |  |  |  |  | 104 ± 2.5 | 96 ± 2.1 | 104 ± 0.6 | 
Cc1sc2ncn(CC(=O)c3cccs3)c(=O)c2c1-c1cccc(Cl)c1 [1 / 3-Cl—Ph / Me / 2-thiophene] |  |  |  |  |  |  | 125 ± 2.8 | 133 ± 3.9 | 137 ± 6.3 | IC50 ([1]; Table 2): 19 µM; maximal potentiation Glu N2C [1, 5]: (293) %; IC50 ([2]; Table 2): 14 µM; maximal potentiation Glu N2B [2, 5]: (207) %; IC50 ([3]; Table 2): 15 µM; maximal potentiation Glu N2D [3, 5]: (224) %
Cc1sc2ncn(CC(=O)c3cccs3)c(=O)c2c1-c1cccc(I)c1 [1 / 3-I—Ph / Me / 2-thiophene] |  |  |  |  |  |  | 180 ± 10.7 | 129 ± 4.5 | 177 ± 7.0 | IC50 ([1]; Table 2): 9.3 µM; maximal potentiation Glu N2C [1, 5]: (255) %; IC50 ([2]; Table 2): 7.7 µM; maximal potentiation Glu N2B [2, 5]: (147) %; IC50 ([3]; Table 2): 11 µM; maximal potentiation Glu N2D [3, 5]: (262) %
Cc1sc2ncn(CC(=O)NCC(=O)O)c(=O)c2c1-c1ccc(Cl)cc1 [1 / 4-Cl—Ph / Me / —NHCH2COOH] |  |  |  |  |  |  | 105 ± 3.7 | 87 ± 1.3 | 93 ± 1.8 | 
Cc1sc2ncn(CCC(=O)N3CCCC3)c(=O)c2c1-c1cccc(Cl)c1 [2 / 3-Cl—Ph / Me / —Npyrrolidine] |  |  |  |  |  |  | 99 ± 5.0 | 95 ± 1.7 | 90 ± 1.7 | 
COc1ccc(C(=O)Cn2cnc3sc4c(c3c2=O)CCCC4)c(OC)c1 [2,4-OMe] |  |  |  |  |  |  | 94 ± 1.4 | 95 ± 1.8 | 90 ± 0.7 | 
Cc1sc2ncn(CCC(=O)O)c(=O)c2c1-c1cccc(Cl)c1 [2 / 3-Cl—Ph / Me / OH] |  |  |  |  |  |  | 89 ± 6.2 | 99 ± 0.6 | 97 ± 1.1 | 
Cc1sc2ncn(CC(=O)N3CCCC3)c(=O)c2c1-c1cc(C(F)(F)F)cc(C(F)(F)F)c1 [3,5-CF3—Ph / Me] |  |  |  |  |  |  | 115 ± 5.5 | 101 ± 4.5 | 103 ± 1.1 | 
Cc1sc2ncn(CC(=O)N3CCCCC3)c(=O)c2c1-c1ccc(Cl)cc1 [1 / 4-Cl—Ph / Me / —Npiperidine] |  |  |  |  |  |  |  |  |  | IC50 ([1]; Table 2): 136 µM; maximal potentiation Glu N2C [1, 5]: (232) %; IC50 ([3]; Table 2): 52 µM; maximal potentiation Glu N2D [3, 5]: (163) %
Cc1sc2ncn(CC(=O)N3CCCCC3)c(=O)c2c1-c1ccc(Br)c(Br)c1 [1 / 3,4-Br—Ph / Me / —Npiperidine] |  |  |  |  |  |  | 168 ± 13.9 |  | 143 ± 3.2 | IC50 ([1]; Table 2): 15 µM; maximal potentiation Glu N2C [1, 5]: (300) %; IC50 ([3]; Table 2): 94 µM; maximal potentiation Glu N2D [3, 5]: (600) %
Cc1sc2ncn(CC(=O)c3ccc(Cl)cc3Cl)c(=O)c2c1-c1cccc(I)c1 [1 / 3-I—Ph / Me / 2,4-Cl—Ph] |  |  |  |  |  |  | 96 ± 4.8 |  | 93 ± 1.8 | 
Cc1sc2ncn(CC(=O)N3CCCCC3)c(=O)c2c1-c1cc(Br)cc(Br)c1 [1 / 3,5-Br—Ph / Me / —Npiperidine] |  |  |  |  |  |  | 232 ± 14.4 |  | 179 ± 10.1 | IC50 ([1]; Table 2): 4.3 µM; maximal potentiation Glu N2C [1, 5]: (233) %
Cc1sc2ncn(CC(=O)N3CCCCC3)c(=O)c2c1-c1cc(C(F)(F)F)cc(C(F)(F)F)c1 [1 / 3,5-CF3—Ph / Me / —Npiperidine] |  |  |  |  |  |  |  |  |  | IC50 ([1]; Table 2): 1.4 µM; maximal potentiation Glu N2C [1, 5]: (155) %
Cc1sc2ncn(CC(=O)C3CCCC3)c(=O)c2c1-c1cccc(I)c1 [1 / 3-I—Ph / Me / -cyclopentyl] |  |  |  |  |  |  | 166 ± 9.5 |  | 133 ± 3.0 | IC50 ([1]; Table 2): 9.4 µM; maximal potentiation Glu N2C [1, 5]: (225) %; IC50 ([3]; Table 2): 14 µM; maximal potentiation Glu N2D [3, 5]: (191) %
Cc1sc2ncn(CC(=O)N3CCCCC3)c(=O)c2c1-c1cccc(I)c1 [1 / 3-I—Ph / Me / —Npiperidine] |  |  |  |  |  |  | 145 ± 11.4 |  | 124 ± 4.8 | 
CON(C)C(=O)Cn1cnc2sc(C)c(-c3cccc(I)c3)c2c1=O [1 / 3-I—Ph / Me / —N(OMe)Me] |  |  |  |  |  |  | 109 ± 4.9 |  | 119 ± 8.9 | 
Cc1ccc(-c2csc3ncn(CC(=O)N4CCC4)c(=O)c23)cc1 [1 / 4-Me—Ph / H / —Nazetidine] |  |  |  |  |  |  |  |  |  | IC50 ([1]; Table 2): > 100 µM; IC50 ([3]; Table 2): 57 µM; maximal potentiation Glu N2D [3, 5]: (0) %

The next lines start with results.

EC50 ([1]; Table 1) [µM] | maximal potentiation Glu N2C [1, 4] [%] | EC50 ([2]; Table 1) [µM] | maximal potentiation Glu N2B [2, 4] [%] | EC50 ([3]; Table 1) [µM] | maximal potentiation Glu N2D [3, 4] [%] | I10 μM/ICONTROL (mean ± SEM, %) Glu N2C [1] [%] | I10 μM/ICONTROL (mean ± SEM, %) Glu N2B [2] [%] | I10 μM/ICONTROL (mean ± SEM, %) Glu N2D [3] [%] | Compound | other results
207 | 597 | 109 | 226 | 170 | 560 |  |  |  | Cc1ccc(-c2csc3ncn(CC(=O)N4CCCC4)c(=O)c23)cc1 [4-Me—Ph / H] | 
60 | 449 | 11.3 | 163 | 79 | 400 |  |  |  | Cc1sc2ncn(CC(=O)N3CCCC3)c(=O)c2c1-c1ccc(Br)cc1 [4-Br—Ph / Me] | 
66 | 417 | 39 | 223 | 58 | 355 |  |  |  | CCc1ccc(-c2csc3ncn(CC(=O)N4CCCC4)c(=O)c23)cc1 [4-Et—Ph / H] | 
 |  | 33 | 174 |  |  | 100 ± 2.5 | 121 ± 6.9 | 98 ± 1.4 | CC(C)c1ccc(-c2csc3ncn(CC(=O)N4CCCC4)c(=O)c23)cc1 [4-^iPr—Ph / H] | 
191 | 453 | 102 | 261 | 80 | 207 | 112 ± 1.3 | 120 ± 5.8 | 99 ± 3.4 | Cc1sc2ncn(CC(=O)N3CCCC3)c(=O)c2c1-c1cccc(-n2ccnc2)c1 [3-N-imidazolyl-Ph / Me] | 
17 | 568 | 11 | 266 | 21 | 687 | 241 ± 19.7 | 172 ± 8.7 | 239 ± 11.5 | Cc1sc2ncn(CC(=O)N3CCCC3)c(=O)c2c1-c1cccc(Br)c1 [3-Br—Ph / Me] | 
 |  |  |  |  |  | 190 ± 4.2 | 147 ± 4.1 | 177 ± 6.2 | Cc1sc2ncn(CC(=O)N3CCCC3)c(=O)c2c1-c1cccc(C#N)c1 [3-CN—Ph / Me] | 
35 | 493 | 20 | 259 | 32 | 432 | 167 ± 9.6 | 152 ± 8.8 | 151 ± 6.3 | Cc1sc2ncn(CC(=O)N3CCCC3)c(=O)c2c1-c1cc(I)cc(I)c1 [3,5-I—Ph / Me] | 
35 | 392 | 11 | 147 | 25 | 291 | 135 ± 5.4 | 118 ± 5.2 | 131 ± 3.7 | Cc1sc2ncn(CC(=O)N3CCCC3)c(=O)c2c1-c1ccc(OCc2ccccc2)cc1 [4-BnO—Ph / Me] | 
36 | 877 | 16 | 301 | 37 | 830 | 211 ± 14.7 | 170 ± 4.7 | 190 ± 6.3 | Cc1sc2ncn(CC(=O)N3CCCC3)c(=O)c2c1-c1cccc(Cl)c1 [3-Cl—Ph / Me] | 
 |  |  |  |  |  | 116 ± 4.5 | 104 ± 1.7 | 103 ± 2.2 | Cc1sc2ncn(CC(=O)N3CCCC3)c(=O)c2c1-c1ccc(N)cc1 [4-NH2—Ph / Me] | 
76 | 770 | 46 | 314 | 72 | 512 |  |  |  | O=C(Cn1cnc2scc(-c3ccc(Cl)cc3)c2c1=O)N1CCCC1 [4-Cl—Ph / H] | 
